{"source": "patent US20150086618A1", "about": "“PHOSPHOLIPID MICELLAR AND LIPOSOMAL COMPOSITIONS AND USES THEREOF” (THE BOARD OF TRUSTEES OF THE UNIVERSITY OF ILLINOIS, priority 2008, published 2015)", "key": {"NF-κB": {"system": "NF-κB", "experiment": "NF-κB-driven luciferase reporter assay in bone marrow-derived macrophages (BMDM) with LPS", "assay_type": "cell-based, mice", "conditions": "24 h", "from_the_text": "Bone marrow-derived macrophages (BMDM) from a primary macrophage cell line, extracted from mice transfected with a nuclear factor-kappa B (NF-κB)-driven luciferase reporter plasmid, were used in these experiments. In this cell line, the expression of NF-κB (a proinflammatory mediator) induces the expression of a luciferase gene in a concentration-dependent manner. Therefore, the expression level of NF-κB in BMDM can be quantified indirectly by the magnitude of luminescence produced [relative luminescence units (RLU)] via a luciferase assay. BMDM were subjected to treatment with either saline, saline+LPS, SSM, SSM+LPS, GLP, GLP+LPS, GLP-SSM (GM), GM+LPS, VIP, VIP+LPS, VIP-SSM (VM), and VM+LPS. The resulting inflammatory responses induced by the different agents was then quantified via a luciferase assay to determine the expression level of NF-κB.\nTest reagents for use in the experiments were prepared using the following protocols as set out in detail below. SSM stock solution (1.56 mM): Weigh approximately 2.2 mg of DSPE-PEG2000 into a round bottom flask (RBF). Add the required volume of saline (˜0.5 ml) to achieve a concentration of 1.56 mM. Vortex the mixture for 2 minutes at maximum speed. Flush the solution with argon and equilibrate in the dark at 25° C. for at least 1 hour. […] Dissolve in the required volume of saline (˜30 μl) to form stock solution (173.3 μM). Test samples and controls were prepared as set out in Table 2, and samples and control were incubated at 25° C. for 2 h in the dark. VIP stock solution (176.67 μM≡587.57 μg/ml): Weigh approximately 12 μg of VIP peptide. Saline (˜20 μl) was added to form the stock solution (176.67 μM). LPS stock solution (LPS is weighed from lyophilized powder and dissolved in PBS; each well contains 1 μg/ml).\nPreparation of cells for test: Extracted bone marrow cells were grown for 7 days in liquid culture medium (LCM) containing full medium. Old medium was removed and fresh medium (10-20 ml) was added. Cells were dislodged by scraping using a cell scraper, and the cells were counted. The concentration of cells was adjusted with medium to the test concentration of 10^5 cells/ml. Cells (10^5) (˜1 ml) were plated into each well of a 12-well plate. This procedure was repeated until 16 wells were plated with cells. Cells were incubated for 24 h at 37° C., 5% CO2. This allowed cells to adhere to the culture plate. After 24 h, medium was removed and replaced with serum-starved medium (with 2% FBS, phenol red containing DMEM and Pen/Strep (P/S)). Cells were incubated at 37° C., 5% CO2.\nDetermination of NF-κB expression level: Before addition of sample/control, the media was removed from each well; washed with PBS and 0.5 ml of serum free media (DMEM with no phenol red, FCS or antibiotics) was added into each well. Cells were treated as set out in Table 3 below. Cells were then incubated for 24 h at 37° C. The culture media was collected from each well. Remaining cells were washed twice with PBS; 100 μl of cell lysis buffer (luciferase kit) was added; cells were dislodged with a cell scraper and collected in centrifuge tubes. All samples were stored at −80° C. if not used immediately. The expression level of NF-kappa B (relative luminescence units (RLU)) in the cell lysate from each well was measured using a luciferase assay (Cat#1500, Promega). The protein content of each sample was measured using a Bradford protein assay to normalize results from the luciferase assay. The results are set out in Table 3 below and in FIG. 2."}, "[1]": {"system": "TREM-1 promoter-driven luciferase gene", "experiment": "TREM1-luciferase reporter assay in RAW 264.7 macrophages stimulated with P. aeruginosa PA103", "assay_type": "cell-based, mouse", "conditions": "RAW 264.7 cells pre-treated 18 hr, then PA103 24 hr; compared to saline-treated PA103-stimulated cells", "from_the_text": "Murine macrophages (RAW 264.7 cells) were transfected with a pro-inflammatory mediator ‘triggering receptor expressed on myeloid cells’ (TREM-1) promoter-driven luciferase gene. TREM-1 is an immunoglobulin superfamily (IgSF) molecule that amplifies inflammation and is a crucial mediator of septic shock (Bouchon et al., Nature 410: 1103-1107, 2001). The macrophages were pre-treated for 18 hr with the following treatments: (i) saline, (ii) SSM, (iii) sub-micellar concentration of lipid (lipid), (iv) GLP-SSM (GM), or (v) VIP-SSM (VM), in the presence or absence of Exendin(9-39) or (VIP(6-28). To allow for the presence of excess antagonist to compete with its respective peptide agonist for receptor binding, the concentration of each receptor antagonist used (10 μM) was 10 times greater than its peptide agonist (1 μM). Inflammation of cells was induced by the addition of the Gram-negative bacteria Pseudomonas aeruginosa (P. aeruginosa strain PA103) for an additional 24 hr, and luciferase activities were measured (see FIG. 1).\nThe preparation of samples was carried out as follows: The SSM stock solution (1.59 mM) was prepared by weighing approximately 2.23 mg of DSPE-PEG2000 into a round bottom flask (RBF). Saline (˜0.5 ml) was added to achieve a concentration of 1.59 mM. […]\nTREM1 expression levels were determined as set out below. […]"}, "[2]": {"experiment": "α-helicity of LP17 and control peptide in saline and SSM", "assay_type": "physicochemical", "conditions": "peptide 20 μM, SSM 5 mM", "protocol": "The α-helicity of LP17 (20 μM) in saline and in SSM (5 mM) was tested. A control peptide ([…] (SEQ ID NO:2)) was also tested in saline and in SSM at the same concentrations."}}, "note": "Where no end group is shown, it is not given here.", "data": [{"substance": "vasoactive intestinal peptide (HSDAVFTDNYTRLRKQMAVKKYLNSILN; ends and bridges not checked; UniProt P01282 125-152, looked up) [VIP, peptide hormone containing 28 amino acid residues, free peptide in saline]", "values": [{"measurement": "Relative Luminescence Units (RLU) Normalized to Protein Concentration, Ave.", "setting": "NF-κB; + LPS (1 μg/ml)", "result": 311.39, "unit": "RLU"}, {"measurement": "Relative Luminescence Units (RLU) Normalized to Protein Concentration, Trial 1", "setting": "NF-κB; + LPS (1 μg/ml)", "result": 329.26, "unit": "RLU"}, {"measurement": "Relative Luminescence Units (RLU) Normalized to Protein Concentration, Trial 2", "setting": "NF-κB; + LPS (1 μg/ml)", "result": 342.42, "unit": "RLU"}, {"measurement": "Relative Luminescence Units (RLU) Normalized to Protein Concentration, Trial 3", "setting": "NF-κB; + LPS (1 μg/ml)", "result": 306.81, "unit": "RLU"}, {"measurement": "Relative Luminescence Units (RLU) Normalized to Protein Concentration, Trial 4", "setting": "NF-κB; + LPS (1 μg/ml)", "result": 267.10, "unit": "RLU"}, {"measurement": "Relative Luminescence Units (RLU) Normalized to Protein Concentration, Ave.", "setting": "NF-κB; control without LPS", "result": 73.70, "unit": "RLU"}, {"measurement": "Relative Luminescence Units (RLU) Normalized to Protein Concentration, Trial 1", "setting": "NF-κB; control without LPS", "result": 57.78, "unit": "RLU"}, {"measurement": "Relative Luminescence Units (RLU) Normalized to Protein Concentration, Trial 2", "setting": "NF-κB; control without LPS", "result": 90.09, "unit": "RLU"}, {"measurement": "Relative Luminescence Units (RLU) Normalized to Protein Concentration, Trial 3", "setting": "NF-κB; control without LPS", "result": 60.50, "unit": "RLU"}, {"measurement": "Relative Luminescence Units (RLU) Normalized to Protein Concentration, Trial 4", "setting": "NF-κB; control without LPS", "result": 86.45, "unit": "RLU"}]}, {"substance": "Exendin (9-39)", "values": [{"measurement": "luciferase activity (expression level of TREM 1)", "setting": "[1]", "result": "absence of anti-inflammatory effect"}]}, {"substance": "TDSRCVIGLYHPPLQVY (SEQ ID NO:2) (listed as Mus musculus) [control peptide, control peptide for LP17]", "values": [{"measurement": "percent α-helicity in SSM compared to saline", "setting": "[2]", "result": "No significant difference"}]}, {"substance": "VIP(6-28): VIP receptor antagonist (FTDNYTRLRKQMAVKKYLNSILN; ends and bridges not checked; UniProt P01282 130-152, looked up, fragment)", "values": [{"measurement": "luciferase activity (expression level of TREM 1)", "setting": "[1]", "result": "absence of anti-inflammatory effect"}]}]}
